Assay results published in ChEMBL document CHEMBL5523739, “NN1213 - A Potent, Long-Acting, and Selective Analog of Human Amylin” (J Med Chem, 2024).
Values after ≈ are worked out from the molar mass of the structure shown. Active and inactive are the calls of the source. No cut-off for these calls is given here.

How the values were obtained:
[1] = target: T1, Amylin receptor AMY3; CALCR/RAMP3 (Homo sapiens, UniProt O60896+P30988); experiment: Agonist activity at human AMY3R complex of CTR/RAMP3 expressed in Baby hamster kidney cells incubated for 3 hrs followed by medium replacement without compound measured after 30 mins by luciferase reporter assay; assay type: functional, cell-based, Baby hamster kidney cell
T1 sequence (P30988 whole entry): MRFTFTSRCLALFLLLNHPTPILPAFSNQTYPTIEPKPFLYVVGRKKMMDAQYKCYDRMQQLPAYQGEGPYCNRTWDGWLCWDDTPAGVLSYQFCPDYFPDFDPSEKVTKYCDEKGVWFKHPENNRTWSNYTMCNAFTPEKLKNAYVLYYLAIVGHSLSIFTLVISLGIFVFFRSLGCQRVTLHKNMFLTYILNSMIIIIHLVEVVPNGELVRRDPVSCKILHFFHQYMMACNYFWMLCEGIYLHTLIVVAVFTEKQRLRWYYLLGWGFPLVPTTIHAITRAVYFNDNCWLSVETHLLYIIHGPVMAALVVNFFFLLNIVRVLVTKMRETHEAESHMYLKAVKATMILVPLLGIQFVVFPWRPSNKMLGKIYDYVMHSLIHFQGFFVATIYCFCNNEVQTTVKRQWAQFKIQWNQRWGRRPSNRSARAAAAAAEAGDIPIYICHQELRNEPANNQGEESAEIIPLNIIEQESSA
T1 sequence (O60896 whole entry): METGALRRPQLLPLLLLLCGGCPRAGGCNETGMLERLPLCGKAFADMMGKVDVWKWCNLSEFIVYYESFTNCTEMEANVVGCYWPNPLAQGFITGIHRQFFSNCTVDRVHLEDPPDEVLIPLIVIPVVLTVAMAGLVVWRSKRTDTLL

Calcitonin receptor = target: T2, Calcitonin receptor (Rattus norvegicus, UniProt P32214); experiment: Agonist activity at rat CTR expressed in Baby hamster kidney cells incubated for 3 hrs by cAMP assay; assay type: functional, cell-based, Baby hamster kidney cell
T2 sequence (P32214 whole entry): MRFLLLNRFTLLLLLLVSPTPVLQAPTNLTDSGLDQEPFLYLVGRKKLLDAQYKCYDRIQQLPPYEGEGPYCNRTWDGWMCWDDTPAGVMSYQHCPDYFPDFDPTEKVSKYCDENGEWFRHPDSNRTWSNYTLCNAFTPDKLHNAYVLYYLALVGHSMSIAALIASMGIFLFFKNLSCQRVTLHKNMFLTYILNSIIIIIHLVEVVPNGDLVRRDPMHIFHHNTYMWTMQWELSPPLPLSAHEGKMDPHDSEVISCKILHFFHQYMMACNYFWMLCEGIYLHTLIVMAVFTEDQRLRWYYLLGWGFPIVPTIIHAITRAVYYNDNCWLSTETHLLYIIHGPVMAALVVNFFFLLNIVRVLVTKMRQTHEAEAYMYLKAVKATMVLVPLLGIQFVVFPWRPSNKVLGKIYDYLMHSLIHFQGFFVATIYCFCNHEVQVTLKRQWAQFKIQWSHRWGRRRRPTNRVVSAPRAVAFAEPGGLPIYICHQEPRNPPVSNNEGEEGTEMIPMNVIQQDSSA

[2] = target: T1, Amylin receptor AMY3; CALCR/RAMP3; experiment: Displacement of 125I-rat amylin from human AMY3R complex of CTR/RAMP3 expressed in Baby hamster kidney cell membrane incubated for 120 mins by SPA method; assay type: cell membranes
[3] = target: T3, Amylin receptor AMY3; CALCR/RAMP3 (Rattus norvegicus, UniProt P32214+Q9JJ73); experiment: Displacement of 125I-rat amylin from rat AMY3R complex of CTR/RAMP3 expressed in Baby hamster kidney cell membrane incubated for 120 mins by SPA method; assay type: cell membranes
T3 sequence (P32214 whole entry): T2 sequence (P32214 whole entry)
T3 sequence (Q9JJ73 whole entry): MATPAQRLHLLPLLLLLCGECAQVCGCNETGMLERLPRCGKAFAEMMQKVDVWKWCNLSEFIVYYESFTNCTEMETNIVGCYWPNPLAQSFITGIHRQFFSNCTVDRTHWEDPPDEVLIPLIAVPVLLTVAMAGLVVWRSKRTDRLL

[4] = Solubility of compound at pH 6 incubated overnight by UPLC analysis; assay type: physicochemical; details: buffer
[5] = Solubility of compound at pH 7 incubated overnight by UPLC analysis; assay type: physicochemical; details: buffer
[6] = Solubility of compound at pH 8 incubated overnight by UPLC analysis; assay type: physicochemical; details: buffer
Rattus norvegicus [7] = experiment: Appetite suppressing activity in rat assessed as reduction in food intake at 30 nmol/kg, sc measured upto 24 hrs relative to control; assay type: functional; parameters: scale not given: the % may be the effect or the level left
Rattus norvegicus [8] = experiment: Appetite suppressing activity in rat assessed as reduction in food intake at 30 nmol/kg, sc measured for 24 to 48 hrs relative to control; assay type: functional; parameters: scale not given: the % may be the effect or the level left; details: time 24-48 hrs
[9] = target: Calcitonin-gene-related peptide receptor, CALCRL/RAMP1 (Homo sapiens, UniProt O60894+Q16602); experiment: Agonist activity at human CGRPR complex of CRLR/RAMP1 transduced in human HeLa cells by cAMP assay; assay type: functional, cell-based
Sequence of Calcitonin-gene-related peptide receptor, CALCRL/RAMP1 (O60894 whole entry): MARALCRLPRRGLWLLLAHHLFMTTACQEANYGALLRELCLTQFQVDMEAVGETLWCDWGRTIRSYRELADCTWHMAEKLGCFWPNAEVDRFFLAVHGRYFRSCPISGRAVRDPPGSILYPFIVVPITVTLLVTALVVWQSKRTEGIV
Sequence of Calcitonin-gene-related peptide receptor, CALCRL/RAMP1 (Q16602 whole entry): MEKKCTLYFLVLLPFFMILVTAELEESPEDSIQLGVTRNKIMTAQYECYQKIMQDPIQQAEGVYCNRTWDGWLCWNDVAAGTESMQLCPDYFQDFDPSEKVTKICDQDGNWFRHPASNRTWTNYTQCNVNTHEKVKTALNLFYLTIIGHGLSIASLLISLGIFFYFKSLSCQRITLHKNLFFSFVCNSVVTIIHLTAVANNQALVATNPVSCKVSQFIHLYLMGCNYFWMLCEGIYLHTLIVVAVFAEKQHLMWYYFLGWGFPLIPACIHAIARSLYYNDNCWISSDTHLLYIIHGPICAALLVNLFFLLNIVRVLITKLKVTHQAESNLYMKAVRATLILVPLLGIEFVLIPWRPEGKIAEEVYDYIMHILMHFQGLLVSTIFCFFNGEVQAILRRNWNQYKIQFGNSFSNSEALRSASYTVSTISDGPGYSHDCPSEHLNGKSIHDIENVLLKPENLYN

[10] = […] bioavailability in rat at 2.5 nmol/kg, sc; assay type: ADME, organism-based; details: in vivo
[11] = Terminal half life in rabbit at 2 nmol/kg, iv; assay type: ADME, Oryctolagus cuniculus; details: in vivo, read-out: beta t1/2 (converted)
[12] = Terminal half life in Gottingen minipig at 4.8 nmol/kg, iv; assay type: ADME, Sus scrofa; details: pig, in vivo, read-out: beta t1/2 (converted)
Rattus norvegicus [13] = experiment: Appetite suppressing activity in rat assessed as reduction in food intake at 3 nmol/kg, sc measured after 48 hrs relative to control; assay type: functional; parameters: scale not given: the % may be the effect or the level left
Rattus norvegicus [14] = experiment: Appetite suppressing activity in rat assessed as reduction in food intake at 100 nmol/kg, sc measured for 48 hrs relative to control; assay type: functional; parameters: scale not given: the % may be the effect or the level left
Canis familiaris [15] = experiment: Appetite suppressing activity in dog assessed as reduction in food intake at 300 nmol/kg, sc measured for 48 hrs relative to control; assay type: functional, Canis lupus familiaris; parameters: scale not given: the % may be the effect or the level left
Canis familiaris [16] = experiment: Appetite suppressing activity in dog assessed as reduction in food intake at 30 nmol/kg, sc measured upto 7 days; assay type: functional, organism-based; details: Canis lupus familiaris, time <= 7.0 day
[17] = Toxicity in dog assessed as sign of discomfort at 3 to 300 nmol/kg, sc; parameters: species or system Canis lupus familiaris; details: in vivo, dose 3-300 nmol/kg
Rattus norvegicus [18] = experiment: Appetite suppressing activity in HFD-fed DIO rat model assessed as body weight lost at 0.7 nmol/kg, sc qd measured after 21 days; assay type: functional; details: time 21 day
Rattus norvegicus [19] = experiment: Appetite suppressing activity in HFD-fed DIO rat model assessed as body weight lost at 22 nmol/kg, sc qd measured after 21 days; assay type: functional; details: time 21 day
Rattus norvegicus [20] = experiment: Appetite suppressing activity in HFD-fed DIO rat model assessed as reduction in body weight administered subcutaneously once daily measured after 21 days; assay type: functional, organism-based; details: dose 0.7-22 nmol/kg, route sc, time 21.0 day
Rattus norvegicus [21] = experiment: Effect on lean mass of HFD-fed DIO rat model at 0.7 to 22 nmol/kg, sc qd measured after 21 days; assay type: functional, organism-based; details: dose 0.7-22 nmol/kg, time 21.0 day

- EC50 [1]: 0.177 nM
- EC50 (Calcitonin receptor): 102 nM
- IC50 [2]: 0.561 nM
- IC50 [3]: 0.29 nM
- solubility [4]: ≥ 200 µM
- solubility [5]: 155 µM (≈ 615 µg/mL)
- solubility [6]: 110 µM (≈ 437 µg/mL)
- EC50 [9]: 269 nM
- bioavailability [10]: ~40%
- half-life [11]: ~50 h
- half-life [12]: ~115 h
SMILES: CC[C@H](C)[C@H](NC(=O)[C@H](C)NC(=O)CNC(=O)[C@H](Cc1ccccc1)NC(=O)[C@H](CC(N)=O)NC(=O)[C@@H]1CCCN1C(=O)[C@H](CO)NC(=O)[C@H](CO)NC(=O)[C@H](Cc1c[nH]cn1)NC(=O)[C@H](CCCNC(=N)N)NC(=O)[C@H](CC(C)C)NC(=O)[C@H](Cc1ccccc1)NC(=O)[C@H](CC(=O)O)NC(=O)[C@H](C)NC(=O)[C@H](CC(C)C)NC(=O)[C@H](CCCNC(=N)N)NC(=O)[C@H](CCC(N)=O)NC(=O)[C@@H](NC(=O)[C@H](C)NC(=O)[C@@H]1CSSC[C@H](NC(=O)[C@@H](N)CCCCN)C(=O)N[C@@H](CC(N)=O)C(=O)N[C@@H]([C@@H](C)O)C(=O)N[C@@H](C)C(=O)N[C@@H]([C@@H](C)O)C(=O)N1)[C@@H](C)O)C(=O)N1CCC[C@H]1C(=O)N[C@@H](CO)C(=O)N[C@@H](CO)C(=O)N[C@H](C(=O)N[C@@H](CC(N)=O)C(=O)N[C@H](C(=O)NCC(=O)N[C@@H](CO)C(=O)N[C@@H](CCCNC(=N)N)C(=O)N[C@H](C(=O)N[C@@H](Cc1ccc(O)cc1)C(N)=O)[C@@H](C)O)C(C)C)[C@@H](C)O
- Activity (Rattus norvegicus [7]): 70%
- Activity (Rattus norvegicus [8]): 50%
- Activity (Rattus norvegicus [13]): 15%
- Activity (Rattus norvegicus [14]): 70%
- Activity (Canis familiaris [15]): 90%
- Activity (Canis familiaris [16]): Active
- Activity [17]: Non-Toxic
- Activity (Rattus norvegicus [18]): 32 g
- Activity (Rattus norvegicus [19]): 69.6 g
- Activity (Rattus norvegicus [20]): Dose-Dependent Effect
- Activity (Rattus norvegicus [21]): inactive
